Experimental data as given in US10633407B2, “14-membered ketolides and methods of their preparation and use” (President and Fellows of Harvard College, priority 2014, dated 2020).
In brackets after ≈: the same amount, converted by molar mass.

How the values were obtained:
Assay in all cases: CLSI broth dilution MIC determination
Type in all cases: cell-based
A. baumannii ATCC 19606 = test system: A. baumannii ATCC 19606
[1] = test system: K. pneumoniae MP-548 clinical
[2] = test system: K. pneumoniae MP-546 Clinical-MDR
[3] = test system: A. baumannii MP-576 Clinical-MDR
[4] = test system: A. baumannii MP-577 Clinical-AZT low
S. aureus MRSA: USA300 = test system: S. aureus MRSA: USA300
Excerpt: (§1) MIC data was collected for the novel macrolides that this platform has produced against over 21 unique strains of B. subtilis, E. coli, S. aureus, S. pneumoniae, and H. influenzae, including several multidrug-resistant strains, with a special focus on macrolide resistant mechanisms (vide supra). Azithromycin (Azithro) and Solithromycin (Solithro) were included as a control macrolides in many cases. CLSI standard procedures for broth dilution MIC determination were used. […] These genotypes can be constitutive or inducible.

[5] = test system: E. coli MP-9 ATCC25922:tolC; conditions: E. coli MP-9, ATCC25922:tolC
Excerpt: as §1

[6] = test system: S. aureus MP-17 ATCCBAA-977 (BAA 977 iErm); conditions: S. aureus MP-17, ATCCBAA-977, iErm
Excerpt: as §1

[7] = test system: S. aureus (MRSA) MP-513 ST-228 cErm (Clinical-cErm)
Excerpt: as §1

E. coli MP-541 clinical = test system: E. coli MP-541 clinical
Excerpt: as §1

S. aureus ATCC 29213 = test system: S. aureus ATCC 29213
Excerpt: as §1

[8] = test system: E. coli MP-532 clinical-cErmB; conditions: E. coli MP-532, clinical-cErmB
Excerpt: as §1

E. coli ATCC 25922 = test system: E. coli ATCC 25922
Excerpt: as §1

P. aeruginosa MP-7 PAO1 = test system: P. aeruginosa MP-7 PAO1
K. pneumoniae ATCC 10031 = test system: K. pneumoniae ATCC 10031
P. aeruginosa ATCC 27853 = test system: P. aeruginosa ATCC 27853
[9] = test system: P. aeruginosa MP-8 PAO1:mex (mex-oprM-deletion); conditions: P. aeruginosa MP-8, PAO1:mex, mex-oprM-deletion
[10] = test system: A. baumannii chromosomal class C; conditions: Gram-negative
S. pyogenes ATCC 19615 = conditions: S. pyogenes ATCC 19615; Gram-positive
E. faecalis ATCC 29212 = conditions: E. faecalis ATCC 29212; Gram-positive
A. baumannii IMP-4 = conditions: Gram-negative
K. pneumoniae KPC-2 = conditions: Gram-negative
[11] = test system: E. faecalis Vancomycin-resistant; conditions: E. faecalis Vancomycin-resistant; Gram-positive
[12] = test system: A. baumannii imipenem-resistant; conditions: Gram-negative
[13] = test system: S. pyogenes Macrolide-resistant; conditions: S. pyogenes Macrolide-resistant; Gram-positive
[14] = test system: H. influenzae Erythro >4, Azithro 1; conditions: H. influenzae Erythro >4, Azithro 1; Gram-negative
Excerpt: as §1, with “Azithromycin (Azithro) and Solithromycin (Solithro) were included as a control macrolides in many cases.” left out

S. aureus USA600, GISA = conditions: S. aureus USA600, GISA; Gram-positive
Excerpt: as §1

E. coli NDM-1 = conditions: Gram-negative
Excerpt: as §1

[15] = test system: S. pneumoniae mef A genotype (second strain so labelled); conditions: Gram-positive
Excerpt: as §1

S. aureus MRSA: USA100 = conditions: S. aureus MRSA: USA100; Gram-positive
Excerpt: as §1

K. pneumoniae TEM-10 = conditions: Gram-negative
Excerpt: as §1

S. pneumoniae ATCC 49619 = conditions: S. pneumoniae ATCC 49619; Gram-positive
Excerpt: as §1

E. coli TEM-1 = conditions: E. coli TEM-1; Gram-negative
Excerpt: as §1

H. influenzae ATCC49247 = conditions: Gram-negative
Excerpt: as §1

S. aureus erm A genotype = conditions: S. aureus erm A genotype; Gram-positive
Excerpt: as §1

E. coli CTX-M-14 = conditions: Gram-negative
Excerpt: as §1

[16] = test system: P. aeruginosa HPA101-1477; conditions: Gram-negative
K. pneumoniae SHV-12 = conditions: Gram-negative
[17] = A. baumannii ATCC 19606, Gram-negative
[18] = S. aureus MRSA: USA300, Gram-positive
[19] = S. aureus ATCC 29213, Gram-positive
[20] = E. coli ATCC 25922, Gram-negative
[21] = K. pneumoniae ATCC 10031, Gram-negative
[22] = P. aeruginosa ATCC 27853, Gram-negative

Structure (SMILES)	MIC [10] [µg/mL]	MIC (S. pyogenes ATCC 19615) [µg/mL]	MIC (A. baumannii ATCC 19606; [17]) [µg/mL]	MIC (E. faecalis ATCC 29212) [µg/mL]	MIC (A. baumannii IMP-4) [µg/mL]	MIC (K. pneumoniae KPC-2) [µg/mL]	MIC [11] [µg/mL]	MIC [12] [µg/mL]	MIC [13] [µg/mL]	MIC [14] [µg/mL]	MIC (S. aureus MRSA: USA300; [18]) [µg/mL]	MIC (S. aureus USA600, GISA) [µg/mL]	MIC (E. coli NDM-1) [µg/mL]	MIC [15] [µg/mL]	MIC (S. aureus MRSA: USA100) [µg/mL]	MIC (K. pneumoniae TEM-10) [µg/mL]	MIC (S. pneumoniae ATCC 49619) [µg/mL]	MIC (E. coli TEM-1) [µg/mL]	MIC (H. influenzae ATCC49247) [µg/mL]	MIC (S. aureus ATCC 29213; [19]) [µg/mL]	also measured
CCC1OC(=O)C(C)(F)C(=O)C(C)C(OC2OC(C)CC(N(C)C)C2O)C(C)(OC)CC(C)C(=O)C(C)C2N(CC=C=Cn3cc(-c4cnccn4)nn3)C(=O)OC12C (centres unmarked) [FSM-22740]																					MIC (A. baumannii ATCC 19606; A. baumannii ATCC 19606 (MP-15)): 16 µg/mL (≈ 19.3 µM); MIC [1]: >64 µg/mL; MIC [2]: >64 µg/mL; MIC [3]: >64 µg/mL; MIC [4]: 64 µg/mL (≈ 77.3 µM); MIC (S. aureus MRSA: USA300; S. aureus MRSA: USA300 (MP-549, msr(a))): 0.25 µg/mL (≈ 0.302 µM); MIC [5]: 2 µg/mL (≈ 2.42 µM); MIC [6]: 0.25 µg/mL (≈ 0.302 µM); MIC [7]: 64 µg/mL (≈ 77.3 µM); MIC (E. coli MP-541 clinical): 16 µg/mL (≈ 19.3 µM); MIC (S. aureus ATCC 29213; S. aureus ATCC 29213 (MP-12)): 0.25 µg/mL (≈ 0.302 µM); MIC [8]: >64 µg/mL; MIC (E. coli ATCC 25922; E. coli ATCC 25922 (MP-4)): 16 µg/mL (≈ 19.3 µM); MIC (P. aeruginosa MP-7 PAO1): >64 µg/mL; MIC (K. pneumoniae ATCC 10031; K. pneumoniae ATCC 10031 (MP-14)): 8 µg/mL (≈ 9.66 µM); MIC (P. aeruginosa ATCC 27853; P. aeruginosa ATCC 27853 (MP-3)): >64 µg/mL; MIC [9]: 16 µg/mL (≈ 19.3 µM)
CC[C@H]1OC(=O)[C@@](C)(F)C(=O)[C@H](C)[C@@H](O[C@@H]2OC(C)CC(N(C)C)C2O)[C@](C)(OC)C[C@@H](C)C(=O)[C@H](C)[C@H]2N(C/C=C/Cn3cc(-c4ccccn4)nn3)C(=O)O[C@]12C (some centres unmarked) [FSM-100383]	8 (≈ 9.65 µM)	< 0.0312	4 (≈ 4.83 µM)	< 0.0312	> 32	> 32	> 32	8 (≈ 9.65 µM)	< 0.0312	0.5 (≈ 0.603 µM)	0.5 (≈ 0.603 µM)	> 32	32 (≈ 38.6 µM)	< 0.0312	> 32	16 (≈ 19.3 µM)	< 0.0312	16 (≈ 19.3 µM)	0.5 (≈ 0.603 µM)	< 0.0312	MIC (S. aureus erm A genotype): > 32 µg/mL; MIC (E. coli CTX-M-14): > 32 µg/mL; MIC (E. coli ATCC 25922; [20]): 8 µg/mL (≈ 9.65 µM); MIC (K. pneumoniae ATCC 10031; [21]): 2 µg/mL (≈ 2.41 µM); MIC (P. aeruginosa ATCC 27853; [22]): > 32 µg/mL; MIC [16]: > 32 µg/mL; MIC (K. pneumoniae SHV-12): > 32 µg/mL
CC[C@H]1OC(=O)[C@@](C)(F)C(=O)[C@H](C)[C@@H](O[C@@H]2OC(C)CC(N(C)C)C2O)[C@](C)(OC)C[C@@H](C)C(=O)[C@H](C)[C@H]2N(C/C=C/Cn3cc(-c4cccc(N)n4)nn3)C(=O)O[C@]12C (some centres unmarked) [FSM-100407]	8 (≈ 9.48 µM)	< 0.0312	8 (≈ 9.48 µM)	< 0.0312	> 32	> 32	16 (≈ 19 µM)	8 (≈ 9.48 µM)	< 0.0312	1 (≈ 1.18 µM)	0.5 (≈ 0.592 µM)	> 32	> 32	< 0.0312	> 32	32 (≈ 37.9 µM)	< 0.0312	> 32	1 (≈ 1.18 µM)	< 0.0312	MIC (S. aureus erm A genotype): > 32 µg/mL; MIC (E. coli CTX-M-14): > 32 µg/mL; MIC (E. coli ATCC 25922; [20]): 16 µg/mL (≈ 19 µM); MIC (K. pneumoniae ATCC 10031; [21]): 4 µg/mL (≈ 4.74 µM); MIC (P. aeruginosa ATCC 27853; [22]): 32 µg/mL (≈ 37.9 µM); MIC [16]: > 32 µg/mL; MIC (K. pneumoniae SHV-12): > 32 µg/mL
CC[C@H]1OC(=O)[C@H](C)C(=O)[C@H](C)[C@@H](O[C@@H]2OC(C)CC(N(C)C)C2O)[C@](C)(OC)C[C@@H](C)C(=O)[C@H](C)[C@H]2N(C/C=C/Cn3cnc(-c4ccccn4)c3)C(=O)O[C@]12C (some centres unmarked) [FSM-100421]	32 (≈ 39.5 µM)	< 0.0312	16 (≈ 19.8 µM)	< 0.0312	> 32	> 32	32 (≈ 39.5 µM)	16 (≈ 19.8 µM)	< 0.0312	1 (≈ 1.23 µM)	2 (≈ 2.47 µM)	> 32	> 32	0.0625 (≈ 0.0772 µM)	> 32	32 (≈ 39.5 µM)	< 0.0312	32 (≈ 39.5 µM)	2 (≈ 2.47 µM)	0.0625 (≈ 0.0772 µM)	MIC (S. aureus erm A genotype): > 32 µg/mL; MIC (E. coli CTX-M-14): > 32 µg/mL; MIC (E. coli ATCC 25922; [20]): 32 µg/mL (≈ 39.5 µM); MIC (K. pneumoniae ATCC 10031; [21]): 4 µg/mL (≈ 4.94 µM); MIC (P. aeruginosa ATCC 27853; [22]): > 32 µg/mL; MIC [16]: > 32 µg/mL; MIC (K. pneumoniae SHV-12): > 32 µg/mL
